Literature values as cited in publication PMC6453670 (International Journal for Parasitology: Drugs and Drug …, 2019).

Tests used:
[1] = test system: Toxoplasma; details: longer treatment duration; ref Winzer et al., 2015
[2] = test system: Neospora; details: longer treatment duration; ref Ojo et al., 2014; Winzer et al., 2015

## CCOc1ccc2cc(-c3nn(CC4CCN(C)CC4)c4ncnc(N)c34)ccc2c1 [BKI 1294]
[1]
  Dose at which morphological alterations were seen in vitro: 2.5 μM
[2]
  Dose at which morphological alterations were seen in vitro: 2.5 μM
